Measurements taken from ChEMBL document CHEMBL1158230, “Cytotoxicity and mode of action of aeroplysinin-1 and a related dienonefrom the sponge Aplysina aerophoba” (J Nat Prod, 1996).

Legend:
Type in all cases: functional, cell-based
[1] = Cytotoxicity against mouse EN19 cells after 2 hrs by MTT assay; settings: EN19, 2 h
[2] = Cytotoxicity against human HeLaS3 cells after 4 days by MTT assay; settings: HeLa S3, 96 h
[3] = Cytotoxicity against human HeLaS3 cells after 2 hrs by MTT assay; settings: HeLa S3, 2 h
[4] = Cytotoxicity against human HeLaS3 cells after 2 weeks by clonogenic assay; settings: HeLa S3, 336 h
[5] = Cytotoxicity against buthionine sulfoximine-pretreated human HeLaS3 cells after 2 hrs by MTT assay; settings: HeLa S3
[6] = Cytotoxicity against buthionine sulfoximine-pretreated mouse EN19 cells after 3 days by MTT assay
[7] = Cytotoxicity against mouse EN19 cells after 1 week by clonogenic assay; settings: EN19, 168 h
[8] = Cytotoxicity against buthionine sulfoximine-pretreated human HeLaS3 cells after 4 days by MTT assay; settings: HeLa S3
[9] = Cytotoxicity against buthionine sulfoximine-pretreated mouse EN19 cells after 2 hrs by MTT assay
[10] = Cytotoxicity against mouse EN19 cells after 3 days by MTT assay; settings: EN19, 72 h

| SMILES | IC50 [1] | IC50 [2] | IC50 [3] | IC50 [4] | IC50 [5] | IC50 [6] | IC50 [7] | IC50 [8] | IC50 [9] | IC50 [10] |
| --- | --- | --- | --- | --- | --- | --- | --- | --- | --- | --- |
| COC1=C(Br)[C@H](O)[C@](O)(CC#N)C=C1Br | 8.2 µM | 5.6 µM | 18.8 µM | 27.5 µM | 5.4 µM | 0.7 µM | 37 µM | 2.8 µM | 1.1 µM | 6.2 µM |
| NC(=O)CC1(O)C=C(Br)C(=O)C(Br)=C1 [VERONGIAQUINOL] | 46.1 µM | 15.6 µM | 31.9 µM | 58 µM | 15.7 µM | 5.4 µM | 74.3 µM | 10.4 µM | 3.9 µM | 26.1 µM |
